Data published in US10004754B2, “ANP fragment adjuvant therapy to standard of care (SOC) diuretic treatment” (MADELEINE PHARMACEUTICALS PTY LTD, priority 2014, dated 2018).
Like-named read-outs stand apart in the source and are kept apart here. Where no end group is shown, it is not given here.

Columns and labels:
stable CHF patients [1] = format: in vivo, human; settings: for Diastolic Blood Pressure: baseline 65 ± 10; for Diastolic Blood Pressure / Systolic Blood Pressure: with SOC; for Systolic Blood Pressure: baseline 119 ± 15
Protocol: VSDL in the form of a white lyophilised powder (synthesised using standard protein synthesis method by Auspep Pty Ltd, Parkville, VIC, Australia), stored in an ultra-low freezer (−80° C.), was reconstituted in a vial with 10 ml of 0.9% saline (preservative free) and aseptically transferred into a 20 ml syringe (that connects to a cannula) before use.
A first study was conducted with a cohort of eight (8) test adult patients, both male and female, with a history of stable, chronic congestive heart failure and moderate renal impairment that had been selected on the basis of the following Inclusion and Exclusion criteria:
All patients underwent existing standard of care (SOC) treatment for the condition for which they presented. These treatments were diuretic therapy (ie administration with furosemide or spironolactone) and an antihypertensive drug(s) (eg an Angiotensin Converting Enzyme (ACE) inhibitor, beta blocker agent and calcium channel blocker agent). […]

stable CHF patients [2] = test: Cardiovascular haemodynamics (Swan-Ganz catheterisation) with sc VSDL infusion, Example 2; format: in vivo, human; settings: for Cardiac Output, Mean / Cardiac Output, Median: baseline 4.7; for systemic vascular resistance: baseline=3076+929
Protocol: A second study was conducted with a population of eighteen (18) test adult CHF patients, both male and female, in order to further evaluate the improvement in renal and cardiac function in stable CHF patients given VSDL (by sc administration) in addition to standard of care (SOC) treatment.
Participants were selected on the basis of the Inclusion and Exclusion criteria given in Example 1. […] In addition, selected patients were required to have a plasma brain natriuretic peptide (BNP) concentration of ≥100 pg/mL and a GFR ≥25 mL/min and <70 mL/min as calculated by the Cockroft Gault calculation (ie moderate renal impairment). On the other hand, the presence of acute MI (ie as indicated by ST elevation and/or elevation of Troponin-T) or evidence of MI or other high risk acute coronary syndrome within the past 6 weeks, hypotension (ie systolic blood pressure (SBP) <90 mmHg), persistent and/or uncontrolled hypertension (SBP>180 mmHg), cardiogenic shock or any other clinical condition that would contraindicate administration of an agent with potent vasodilatory effects, excluded patients from participating in the study. Participants in this study also had standard exclusion criteria that accompany pulmonary artery (SG) catheterisation.
The study was an open-label, sequential group, continuous sc infusion study conducted at a single centre. Two steady-state concentration levels (Css) of VSDL were targeted, approximately 10 ng/mL (n=2 lead-in, and n=10, cohort 1) and 20 ng/mL (n=6, cohort 2). The two lead-in patients were treated with similar dose regimens to confirm that the measured plasma concentrations were in agreement with the targeted Css. Two patients from cohort 1 and all 6 patients from cohort 2 underwent pulmonary artery Swan-Ganz (SG) catheterisation to enable haemodynamic monitoring.
VSDL prepared as described in Example 1, was administered via sc 6 or 12 hour infusion into the lower abdomen at a maximum volume rate of 350 μL/hr (ie approximately 6 μL/min). The rate of infusion of VSDL for the targeted Css level of 10 ng/mL was either 900 μg/hr (0.3 mL/hr) for 12 hrs or a bimodal infusion of 900 μg/hr for 5 hrs followed by 550 μg/hr (0.18 mL/hr) for 7 hrs. The rate of infusion of VSDL for the targeted Css level of 20 ng/mL was bimodal; 1800 μg/hr (0.20 mL/hr) for 5 hrs followed by 1100 μg/hr (0.12 mL/hr) for 7 hrs (see WO 2014/138796). For the lead-in patients, the infusions were performed at 900 μg/hr for 6 hrs.
R Studio (version 4) and GraphPad Prism (GraphPad Software, version 6) were used for all statistical analyses. Statistically significant changes from base line for all parameters were tested using with linear mixed effects model or one-way repeated measures ANOVA with Bonferroni correction. A p value of 0.05 was set for statistically significant differences. All data are reported as mean±s.d or mean (95% CI).

[3] = system: patients showing either acute exacerbations of chronic CHF or ADCHF; settings: cited from earlier work

What does the source list for “EVVPPQVLSEPNEEAGAALSPLPEVPPWTGEVSPAQR [VSDL]”?
Diastolic Blood Pressure (stable CHF patients [1]; 10 ng/kg column): 64 ± 7 mmHg; Systolic Blood Pressure (stable CHF patients [1]; 10 ng/kg column): 122 ± 10 mmHg; Diastolic Blood Pressure (stable CHF patients [1]; 20 ng/kg column): 65 ± 6 mmHg; Systolic Blood Pressure (stable CHF patients [1]; 20 ng/kg column): 115 ± 19 mmHg; symptomatic hypotension (stable CHF patients [1]; human, in vivo, sc): none of these resulted in symptomatic hypotension; change in systolic and diastolic blood pressures (stable CHF patients [1]; stable CHF patients, sc bolus VSDL with SOC, p < 0.05): significant drop; Cardiac Output, Mean (stable CHF patients [2]; >0.5-6 hrs): 4.6 L/min; Cardiac Output, Median (stable CHF patients [2]; >0.5-6 hrs): 4.2 L/min; Cardiac Output, Mean (stable CHF patients [2]; >6-12 hrs): 4.9 L/min; Cardiac Output, Median (stable CHF patients [2]; >6-12 hrs): 4.3 L/min; Cardiac Output, Mean (stable CHF patients [2]; >12-24 hrs): 5.0 L/min; Cardiac Output, Median (stable CHF patients [2]; >12-24 hrs): 4.4 L/min; pulmonary capillary wedge pressure (stable CHF patients [2]; adjuvant VSDL treatment, limited patient numbers to date): either decreased or unchanged; pulmonary vascular resistance (stable CHF patients [2]; infusion of VSDL): no changes; increase in cardiac output on average above baseline (regression of cardiac output on time) (stable CHF patients [2]; t=3.16, p≤0.05, FIG. 1): 0.000472 L/min; systemic vascular resistance (stable CHF patients [2]; ≥0.5-6 hs): 2658+676 dyn·s/cm^5; systemic vascular resistance (stable CHF patients [2]; ≥6-12 hs): 2529+509 dyn·s/cm^5; systemic vascular resistance (stable CHF patients [2]; ≥12-24 hs): 2485+645 dyn·s/cm^5; side-effects ([3]; in vivo, iv): without side-effects; outcomes (eg increased cardiac index, drops in pulmonary capillary wedge pressure and blood pressure) ([3]; iv infusion, even with very low doses, WO 2012/019237): improved outcomes
